Reference: patent US20210061684A1 (HIYOSHI CORPORATION, priority 2018, published 2021)
Read-outs that look alike come from different tables or passages of the source.

What was measured:
Legionella [1] = system: Legionella
Legionella [2] = system: Legionella; remark: listed apart in the source

Row | Substance | effect on Legionella at low concentration (Legionella [1]) | growth of Legionella (Legionella [1]) | decrease of the number of bacteria (Legionella [2]) | effect on Legionella at low concentration (Legionella [2]) | growth of Legionella (Legionella [2])
1 | iron (II) sulfate heptahydrate | an effect was obtained | greatly suppressed | at least 3 orders of magnitude | the effect was observed | greatly suppressed
2 | iron (III) chloride hexahydrate | an effect was obtained | greatly suppressed |  |  | 
3 | ammonium iron (II) sulfate hexahydrate |  |  |  | a sufficient effect was obtained | greatly suppressed
4 | ammonium iron (III) sulfate dodecahydrate |  |  |  | a sufficient effect was obtained | greatly suppressed
